Results reported in ChEMBL document CHEMBL5154647, “Discovery of seneciobipyrrolidine derivatives for the amelioration of glucose homeostasis disorders through 4E-BP1/Akt/AMPK signaling activation” (Eur J Med Chem, 2022).

Columns and labels:
Mus musculus [1] = experiment: Antidiabetic activity in db/db mouse assessed as reduction in fasting blood glucose level at 300 mg/kg, po bid measured up to 21 days; assay type: functional; design: scale not given: the % may be the effect or the level left; settings: time <= 21 day
[2] = Toxicity in db/db mouse assessed as reduction in total cholesterol at 300 mg/kg, po administered for 21 days; assay type: organism-based; settings: in vivo, 504 h, time 21 day
[3] = Toxicity in db/db mouse liver assessed as reduction of fat accumulation in liver at 300 mg/kg, po bid administered for 21 days by H and E staining based microscopic analysis; assay type: organism-based; settings: in vivo, 504 h, time 21 day
[4] = Toxicity in db/db mouse assessed as increase in body weight at 300 mg/kg, po administered for 21 days; assay type: organism-based; settings: in vivo, 504 h, time 21 day
Mus musculus [5] = experiment: Antidiabetic activity in db/db mouse assessed as reduction in blood glucose level at 300 mg/kg, po bid measured after 6 hrs; assay type: functional; design: scale not given: the % may be the effect or the level left
Mus musculus [6] = experiment: Antidiabetic activity in db/db mouse assessed as reduction in random blood glucose level at 300 mg/kg, po bid measured up to 21 days; assay type: functional; design: scale not given: the % may be the effect or the level left; settings: time <= 21 day
[7] = Toxicity in db/db mouse assessed as reduction in triglyceride at 300 mg/kg, po administered for 21 days; assay type: organism-based; settings: in vivo, 504 h, time 21 day
[8] = Toxicity in db/db mouse assessed as effect on muscle tissue morphology at 300 mg/kg, po bid administered for 21 days by H and E staining based microscopic analysis; assay type: organism-based; settings: in vivo, 504 h, time 21 day
[9] = Toxicity in db/db mouse assessed as effect on pancreas morphology at 300 mg/kg, po bid administered for 21 days by H and E staining based microscopic analysis; assay type: organism-based; settings: in vivo, 504 h, time 21 day

## CN(C)C(=N)NC(=N)N [METFORMIN]
Mus musculus [1]
  Activity: 26.6%
[2]
  Activity: Toxic
[3]
  Activity: Toxic
[4]
  Activity: Non-Toxic
Mus musculus [5]
  Activity: 49.7%
Mus musculus [6]
  Activity: 40.3%
[7]
  Activity: Toxic
[8]
  Activity: Non-Toxic
[9]
  Activity: Non-Toxic
